How the values were obtained:
[1] = test system: blackgrass; experiment: Test C preemergence; assay type: in vivo, Alopecurus myosuroides
Outline: (§1)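 Greenhouse herbicide screen, 10-day duration. Test chemicals in solvent/surfactant blend were sprayed onto soil at sowing (pre) or onto 2–10 cm seedlings at one to two leaves (post); injury scored visually against controls, 0 no effect to 100 complete control.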

[2] = test system: barnyardgrass; experiment: Test C preemergence; assay type: in vivo, Echinochloa crusgalli
Outline: as §1

[3] = test system: kochia; experiment: Test C preemergence; assay type: in vivo, Bassia scoparia
Outline: as §1

[4] = test system: oat, wild; experiment: Test C postemergence; assay type: in vivo, Avena fatua; conditions: 10 days, 0 to 100 scale (0 no effect, 100 complete control)
Outline: as §1

[5] = test system: kochia; experiment: Test C postemergence; assay type: in vivo, Bassia scoparia; conditions: 10 days, 0 to 100 scale (0 no effect, 100 complete control)
Outline: as §1

[6] = test system: corn; experiment: Test C postemergence; assay type: in vivo, Zea mays; conditions: 10 days, 0 to 100 scale (0 no effect, 100 complete control)
Outline: as §1

[7] = test system: ragweed; experiment: Test C postemergence; assay type: in vivo, Ambrosia artemisiifolia; conditions: 10 days, 0 to 100 scale (0 no effect, 100 complete control)
Outline: as §1

[8] = test system: ragweed; experiment: Test C preemergence; assay type: in vivo, Ambrosia artemisiifolia
Outline: as §1

[9] = test system: soybean; experiment: Test C postemergence; assay type: in vivo, Glycine max; conditions: 10 days, 0 to 100 scale (0 no effect, 100 complete control)
Outline: as §1

[10] = test system: wheat; experiment: Test C preemergence; assay type: in vivo, Triticum aestivum
Outline: as §1

[11] = test system: barnyardgrass; experiment: Test D flooded paddy test; assay type: in vivo, Echinochloa crus-galli; conditions: 250 g ai/ha, applied to paddy water, visual rating after 13 to 14 days, scale 0 to 100 (0 no effect, 100 complete control)
Outline: (§2)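 Post-flood water application at the 2-leaf stage; 3 cm flood depth kept constant; visual control rating 0–100 after 13–14 days greenhouse growth.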

[12] = test system: galium; experiment: Test C postemergence; assay type: in vivo, Galium aparine; conditions: 10 days, 0 to 100 scale (0 no effect, 100 complete control)
Outline: as §1

[13] = test system: horseweed; experiment: Test C postemergence; assay type: in vivo, Erigeron canadensis; conditions: 10 days, 0 to 100 scale (0 no effect, 100 complete control)
Outline: as §1

[14] = test system: ryegrass, Italian; experiment: Test C preemergence; assay type: in vivo, Lolium multiflorum
Outline: as §1

[15] = test system: pigweed, palmer; experiment: Test C postemergence; assay type: in vivo, Amaranthus palmeri; conditions: 10 days, 0 to 100 scale (0 no effect, 100 complete control)
Outline: as §1

[16] = test system: blackgrass; experiment: Test C postemergence; assay type: in vivo, Alopecurus myosuroides; conditions: 10 days, 0 to 100 scale (0 no effect, 100 complete control)
Outline: as §1

[17] = test system: barnyardgrass; experiment: Test C postemergence; assay type: in vivo, Echinochloa crusgalli; conditions: 10 days, 0 to 100 scale (0 no effect, 100 complete control)
Outline: as §1

[18] = test system: foxtail, giant; experiment: Test C preemergence; assay type: in vivo, Setaria faberi
Description: (§3) Seeds of plant species selected from barnyardgrass (Echinochloa crusgalli), blackgrass (Alopecurus myosuroides), corn (Zea mays), foxtail, giant (giant foxtail, Setaria faberi), green foxtail (Setaria viridis), goosegrass (Eleusine indica), kochia (Bassia scoparia), oat, wild (wild oat, Avena fatua), pigweed, palmer (palmer amaranth, palmer pigweed, Amaranthus palmeri), Pigweed, Redroot (redroot pigweed, Amaranthus retroflexus), ragweed (common ragweed, Ambrosia artemisiifolia), ryegrass, Italian ([…] ryegrass, Lolium multiflorum), soybean (Glycine max), and wheat (Triticum aestivum) were planted into a blend of loam soil and sand and treated preemergence with a directed soil spray using test chemicals formulated in a non-phytotoxic solvent mixture which included a surfactant. At the same time, plants selected from these crops and weed species and also galium (catchweed bedstraw, Galium aparine) and horseweed (Erigeron canadensis) were planted in pots containing the same blend of loam soil and sand and treated with postemergence applications of test chemicals formulated in the same manner. Plants ranged in height from 2 to 10 cm and were in the one- to two-leaf stage for the postemergence treatment. Treated plants and untreated controls were maintained in a greenhouse for 10 days, after which time all treated plants were compared to untreated controls and visually evaluated for injury. Plant response ratings, summarized in Table C, are based on a 0 to 100 scale where 0 is no effect and 100 is complete control. A dash (-) response means no test result.

[19] = test system: rice; experiment: Test D flooded paddy test; assay type: in vivo, Oryza sativa; conditions: 250 g ai/ha, applied to paddy water, visual rating after 13 to 14 days, scale 0 to 100 (0 no effect, 100 complete control)
Outline: as §2

[20] = test system: ducksalad; experiment: Test D flooded paddy test; assay type: in vivo, Heteranthera limosa; conditions: 250 g ai/ha, applied to paddy water, visual rating after 13 to 14 days, scale 0 to 100 (0 no effect, 100 complete control)
Outline: as §2

[21] = test system: oat, wild; experiment: Test C preemergence; assay type: in vivo, Avena fatua
Outline: as §1

[22] = test system: ryegrass, Italian; experiment: Test C postemergence; assay type: in vivo, Lolium multiflorum; conditions: 10 days, 0 to 100 scale (0 no effect, 100 complete control)
Outline: as §1

[23] = test system: foxtail, giant; experiment: Test C postemergence; assay type: in vivo, Setaria faberi; conditions: 10 days, 0 to 100 scale (0 no effect, 100 complete control)
Description: as §3

[24] = test system: pigweed, palmer; experiment: Test C preemergence; assay type: in vivo, Amaranthus palmeri
Outline: as §1

[25] = test system: corn; experiment: Test C preemergence; assay type: in vivo, Zea mays
Outline: as §1

[26] = test system: soybean; experiment: Test C preemergence; assay type: in vivo, Glycine max
Outline: as §1

[27] = test system: sedge, umbrella; experiment: Test D flooded paddy test; assay type: in vivo, Cyperus difformis; conditions: 250 g ai/ha, applied to paddy water, visual rating after 13 to 14 days, scale 0 to 100 (0 no effect, 100 complete control)
Outline: as §2

[28] = test system: wheat; experiment: Test C postemergence; assay type: in vivo, Triticum aestivum; conditions: 10 days, 0 to 100 scale (0 no effect, 100 complete control)
Outline: as §1

[29] = 500 g ai/ha, preemergence, 0 to 100 scale (0 no effect, 100 complete control)
[30] = Preemergence, 125 g ai/ha, 0 to 100 scale, 0 no effect, 100 complete control

Structure (SMILES): Cc1ncnn1-c1cc(C(=O)N2CC(C(F)(F)F)Oc3c(Cl)cccc32)ccn1 (racemic) [Compound 333]
- Blackgrass plant response rating [1, 29]: 0
- Plant response rating, Blackgrass [1, 30]: 0
- Barnyardgrass plant response rating [2, 29]: 0
- Plant response rating, Barnyardgrass [2, 30]: 0
- Kochia plant response rating [3, 29]: 10
- Plant response rating, Kochia [3, 30]: 0
- Plant response rating, Oat, Wild ([4]; 500 g ai/ha, postemergence): 0
- Plant response rating, Oat, Wild ([4]; Postemergence, 125 g ai/ha): 0
- Plant response rating, Kochia ([5]; 500 g ai/ha, postemergence): 50
- Plant response rating, Kochia ([5]; Postemergence, 125 g ai/ha): 30
- Plant response rating, Corn ([6]; 500 g ai/ha, postemergence): 20
- Plant response rating, Corn ([6]; Postemergence, 125 g ai/ha): 10
- Plant response rating, Ragweed ([7]; 500 g ai/ha, postemergence): 10
- Plant response rating, Ragweed ([7]; Postemergence, 125 g ai/ha): 0
- Ragweed plant response rating [8, 29]: 0
- Plant response rating, Ragweed [8, 30]: 0
- Plant response rating, Soybean ([9]; 500 g ai/ha, postemergence): 50
- Plant response rating, Soybean ([9]; Postemergence, 125 g ai/ha): 50
- Wheat plant response rating [10, 29]: 0
- Plant response rating, Wheat [10, 30]: 0
- Plant response rating, Barnyardgrass (Flood) [11]: 0
- Plant response rating, Galium ([12]; 500 g ai/ha, postemergence): 60
- Plant response rating, Galium ([12]; Postemergence, 125 g ai/ha): 0
- Plant response rating, Horseweed ([13]; 500 g ai/ha, postemergence): 0
- Plant response rating, Horseweed ([13]; Postemergence, 125 g ai/ha): 0
- Ryegrass, Italian plant response rating [14, 29]: 40
- Plant response rating, Ryegrass, Italian [14, 30]: 30
- Plant response rating, Pigweed, Palmer ([15]; 500 g ai/ha, postemergence): 20
- Plant response rating, Pigweed, Palmer ([15]; Postemergence, 125 g ai/ha): 0
- Plant response rating, Blackgrass ([16]; 500 g ai/ha, postemergence): 20
- Plant response rating, Blackgrass ([16]; Postemergence, 125 g ai/ha): 0
- Plant response rating, Barnyardgrass ([17]; 500 g ai/ha, postemergence): 10
- Plant response rating, Barnyardgrass ([17]; Postemergence, 125 g ai/ha): 10
- Foxtail, Giant plant response rating [18, 29]: 80
- Plant response rating, Foxtail, Giant [18, 30]: 0
- Plant response rating, Rice (Flood) [19]: 0
- Plant response rating, Ducksalad (Flood) [20]: 0
- Oat, Wild plant response rating [21, 29]: 0
- Plant response rating, Oat, Wild [21, 30]: 0
- Plant response rating, Ryegrass, Italian ([22]; 500 g ai/ha, postemergence): 10
- Plant response rating, Ryegrass, Italian ([22]; Postemergence, 125 g ai/ha): 0
- Plant response rating, Foxtail, Giant ([23]; 500 g ai/ha, postemergence): 40
- Plant response rating, Foxtail, Giant ([23]; Postemergence, 125 g ai/ha): 20
- Pigweed, Palmer plant response rating [24, 29]: 30
- Plant response rating, Pigweed, Palmer [24, 30]: 0
- Corn plant response rating [25, 29]: 0
- Plant response rating, Corn [25, 30]: 0
- Soybean plant response rating [26, 29]: 0
- Plant response rating, Soybean [26, 30]: 0
- Plant response rating, Sedge, Umbrella (Flood) [27]: 0
- Plant response rating, Wheat ([28]; 500 g ai/ha, postemergence): 10
- Plant response rating, Wheat ([28]; Postemergence, 125 g ai/ha): 10

— patent publication US20260262643A1, “HERBICIDAL BENZOXAZINES” (FMC CORPORATION, priority 2022, published 2026)
